According to US12370239B2, “Microvascular blood flow decreasing agent and use thereof” (priority 2016, dated 2025):
Entries after “also recorded” stand apart in the source; their conditions may differ.

How the values were obtained:
Type in all cases: in vivo, human
microvasculature = assay: Contrast imaging of microvascular blood flow / vessel density after infusion
Procedure: When it is used for decreasing microvascular blood flow according to the present invention, the dose of the immune checkpoint inhibitor to be administered will vary depending on the type of the immune checkpoint inhibitor to be administered, though a skilled person can calculate an appropriate amount.
It was shown that each of the immune checkpoint inhibitors causes a clear change in tumor hemodynamics by single-agent administration 2 to 3 minutes after the infusion from the tumor vessel. Moreover, an immediate relief from cancerous pain by administration is also confirmed. Adding to these, their original effect of inhibiting immune checkpoint can also be expected, providing a prospective of relatively longer lasting effect by administration of single agent.
In all cases, fat suppression T2-weighted MRI image was obtained before treatment to select target vessels. 3Fr intraarterial-indwelling sheath (Medikit Co., Ltd.) was inserted from femoral artery by Seldinger method, allowed to reach the target vessel using 3Fr angiography catheter (Medikit Co., Ltd.), Radifocus 0.032″ external diameter guide wire (TERUMO Corp.), and microcatheter ASAHI Tellus C3, ASAHI Meister 0.016″ micro guide wire (ASAHI INTECC Co., Ltd.) as appropriate, then abnormal vascular networks are identified by contrast imaging. […]

tumor = assay: Endovascular therapy case reports, tumor response (Example 3); parameters: key: CR indicates an elimination of tumor from the imaging; PR indicates >50% reduction of tumor diameter; MR indicates >30% reduction of tumor diameter; NC indicates <30% reduction of tumor diameter; PD indicates an increase in tumor diameter
Procedure: Short-term tumor-reducing effect in 1 month after the administration was assessed by MRI or CT imaging. In the table, CR indicates an elimination of tumor from the imaging, PR indicates >50% reduction of tumor diameter, MR indicates >30% reduction of tumor diameter, NC indicates <30% reduction of tumor diameter, and PD indicates an increase in tumor diameter.
To Patient A who had suffered from breast cancer, an endovascular therapy was carried out using nivolumab 10 mg, pertuzumab 60 mg, bortezomib 0.7 mg, thrombomodulin 3200 U and maxacalcitol 10 μg. This patient was marked as CR by such treatment.
To Patient B who had suffered from malignant fibrous histiocytoma in right femur, an endovascular therapy was carried out using 20 mg of nivolumab. This patient was marked as CR after 3 treatments using 20 mg of nivolumab per each administration.
To Patience C who had suffered from hepatitis C and had developed liver cancer, an endovascular therapy was carried out using nivolumab 10 mg, bortezomib 0.7 mg, etanercept 25 mg, maxacalcitol 10 μg and imipenem/cilastatin sodium 500 mg/body for each administration. This patient was marked as CR after two treatments.
(§1) This patient was subjected to an endovascular therapy using nivolumab 10 mg, bortezomib 0.7 mg, etanercept 25 mg, maxacalcitol 10 μg, and thrombomodulin 3200 U, and was marked as CR by such treatment. […] FIG. 4 is a graph showing the transition of % IS of BCR-ABL mRNA before and after the endovascular therapy for the […] in this patient.

BCR-ABL mRNA = assay: % IS of BCR-ABL mRNA, marker for chronic myeloid leukemia, before and after endovascular therapy; details: Patient D, after endovascular therapy for bladder cancer (time point 2 to 3, FIG. 4)
Procedure: as §1

[1] = tested on: blood vessels at a site having prolonged pain; assay: Endovascular therapy to blood vessels at a site having prolonged pain, symptom improvement and side effects (Example 4); parameters: key to Effect (improvement in symptoms): an exacerbation in symptom=0; no change=1; an improvement in symptom and easiness in dairy living=2; almost satisfactory improvement=3; Side effect: scale not given here
Procedure: To 14 subject cases indicated in the table below who had blood vessels at a site having prolonged pain, endovascular therapy was carried out as follows, using pembrolizumab.
In all cases, fat suppression T2-weighted MRI image was obtained before treatment to select target vessels. 3Fr intraarterial-indwelling sheath (Medikit Co., Ltd.) was inserted from femoral artery by Seldinger method, allowed to reach the target vessel using 3Fr angiography catheter (Medikit Co., Ltd.), Radifocus 0.032″ external diameter guide wire (TERUMO Corp.), and microcatheter ASAHI Tellus C3, ASAHI Meister 0.016″ micro guide wire (ASAHI INTECC Co., Ltd.) as appropriate, then abnormal vascular networks are identified by contrast imaging.
Subsequently, as shown in the table, pembrolizumab 1 to 4 mg/body (mean=1.86 mg/body, median=2 mg/body) was mixed with the combined drugs in 100 ml of physiological saline, stirred with a stirrer while being infused into the target vessel in an amount such that a sufficient decrease in abnormal vessel density was confirmed.
The level of post-treatment improvement in symptoms was assessed after 3 weeks or longer. A stepwise assessment was done as follows: an exacerbation in symptom=0, no change=1, an improvement in symptom and easiness in dairy living=2, almost satisfactory improvement=3.

## ipilimumab
microvasculature; by itself, injection into nutrient artery
  tumor vessel density-decreasing effect: strong tumor vessel density-decreasing effect

## nivolumab
tumor; Patient A, breast cancer, nivolumab 10 mg with pertuzumab 60 mg, bortezomib 0.7 mg, thrombomodulin 3200 U, maxacalcitol 10 μg
  tumor response: CR
tumor; Patient B, malignant fibrous histiocytoma in right femur (metastasis to lung), after 3 treatments, 20 mg of nivolumab per administration
  tumor response: CR
tumor; Patient C, liver cancer (hepatitis C), stage II, after two treatments, nivolumab 10 mg with bortezomib 0.7 mg, etanercept 25 mg, maxacalcitol 10 μg, imipenem/cilastatin sodium 500 mg/body
  tumor response: CR
tumor; Patient D, bladder cancer (chronic myeloid leukemia), stage II, nivolumab 10 mg with bortezomib 0.7 mg, etanercept 25 mg, maxacalcitol 10 μg, thrombomodulin 3200 U
  tumor response: CR
BCR-ABL mRNA
  % IS of BCR-ABL mRNA: decreased

## pembrolizumab
[1]; Case 1, Left gonarthritis, P 1 mg/body + imp/cs 500, bv 50, bort 0.35, maxa 10
  Side effect: 0
[1]; Case 1, Left gonarthritis, P 1 mg/body + imp/cs 500, bv 50, bort 0.35, maxa 10, after 3 weeks or longer
  Effect (improvement in symptoms): 1
[1]; Case 2, Elbow joint RA 5 y, P 4 mg/body + eta 25, bort 0.35, imp/cs 500, after 3 weeks or longer
  Effect (improvement in symptoms): 3
[1]; Case 2, Elbow joint RA, P 4 mg/body + eta 25, bort 0.35, imp/cs 500
  Side effect: 0
[1]; Case 3, Hip osteoarthritis 5 y, P 3 mg/body + eta 25, bort 0.35, maxa 10, imp/cs 501, after 3 weeks or longer
  Effect (improvement in symptoms): 3
[1]; Case 3, Hip osteoarthritis, P 3 mg/body + eta 25, bort 0.35, maxa 10, imp/cs 501
  Side effect: 0
[1]; Case 4, Left shoulder pain, P 3 mg/body + bort 0.35
  Side effect: 0
[1]; Case 4, Left shoulder pain, P 3 mg/body + bort 0.35, after 3 weeks or longer
  Effect (improvement in symptoms): 3
[1]; Case 5, Lumbar spinal stenosis 5 y, P 2 mg/body + bort 0.36, after 3 weeks or longer
  Effect (improvement in symptoms): 2
[1]; Case 5, Lumbar spinal stenosis, P 2 mg/body + bort 0.36
  Side effect: 0
[1]; Case 6, Right foot Lisfranc joint injury, P 1 mg/body + bv 50, bort 0.35, eta 25, maxa 10
  Side effect: 0
[1]; Case 6, Right foot Lisfranc joint injury, P 1 mg/body + bv 50, bort 0.35, eta 25, maxa 10, after 3 weeks or longer
  Effect (improvement in symptoms): 3
[1]; Case 7, Low back pain after spinal compression fracture 1.5 y, P 1 mg/body + bort 0.35, eta 25, maxa 10, reco 3200, after 3 weeks or longer
  Effect (improvement in symptoms): 2
[1]; Case 7, Low back pain after spinal compression fracture, P 1 mg/body + bort 0.35, eta 25, maxa 10, reco 3200
  Side effect: 0
[1]; Case 8, Right knee RA 3.8 y, P 2 mg/body + bort 0.35, eta 25, reco 3200, after 3 weeks or longer
  Effect (improvement in symptoms): 2
[1]; Case 8, Right knee RA, P 2 mg/body + bort 0.35, eta 25, reco 3200
  Side effect: 0
[1]; Case 9, Bilateral knee joint replacement postoperation 1.5 y, P 2 mg/body + eta 25, imp/cs 500, after 3 weeks or longer
  Effect (improvement in symptoms): 1
[1]; Case 9, Bilateral knee joint replacement postoperation, P 2 mg/body + eta 25, imp/cs 500
  Side effect: 0
[1]; Case 10, Piriformis syndrome, P 1 mg/body + bort 0.35, eta 25, reco 3200
  Side effect: 0
[1]; Case 10, Piriformis syndrome, P 1 mg/body + bort 0.35, eta 25, reco 3200, after 3 weeks or longer
  Effect (improvement in symptoms): 2
[1]; Case 11, Left Achilles peritendinitis, P 1 mg/body
  Side effect: 0
[1]; Case 11, Left Achilles peritendinitis, P 1 mg/body, no combined drug printed, after 3 weeks or longer
  Effect (improvement in symptoms): 3
[1]; Case 12, Bilateral gonarthrosis, P 2 mg/body
  Side effect: 0
[1]; Case 12, Bilateral gonarthrosis, P 2 mg/body, no combined drug printed, after 3 weeks or longer
  Effect (improvement in symptoms): 2
[1]; Case 13, Left gonarthrosis, foot arthritis, P 2 mg/body
  Side effect: 0
[1]; Case 13, Left gonarthrosis, foot arthritis, P 2 mg/body, no combined drug printed, after 3 weeks or longer
  Effect (improvement in symptoms): 1
[1]; Case 14, Right foot joint MFP syndrome, P 1 mg/body
  Side effect: 0
[1]; Case 14, Right foot joint MFP syndrome, P 1 mg/body, no combined drug printed, after 3 weeks or longer
  Effect (improvement in symptoms): 2
[1]; all 14 cases, including minor side effects such as transient fever
  side effects considered to be caused by the therapy: No side effect; also recorded: without any side effects
[1]; out of 14 cases, pembrolizumab 1 to 4 mg/body into target vessel, after 3 weeks or longer
  cases with rating of 2 or more (improvement in symptom): 11
[1]; selective arterial infusion to the site of pain, 1 to 2 mg/body, diluted at 1 to 2% in physiological saline
  chronic pain: cancellation of chronic pain
microvasculature; Cases 7 and 8, 2 minutes after drug administration (FIGS. 5 and 6)
  abnormal microvascular density: significant decrease in abnormal microvascular density
